Measurements taken from patent publication US20200289434A1, “RAPIDLY IMPROVING ENDOTHELIAL FUNCTION, REDUCING ARTERIAL STIFFNESS AND REVERSING CALCIFICATION OF BLOOD VESSELS BY ADMINISTERING VITAMIN K” (KAYDENCE PHARMA AS, priority 2019, published 2020).

Legend:
[1] = tested on: thrombin generation in platelet-poor mice plasma; experiment: Example 3 second part: thrombin generation by calibrated automated thrombogram (CAT); assay type: in vivo; conditions: eight weeks, either dose
Procedure: Thrombin generation was measured in platelet-poor mice plasma using calibrated automated thrombography (CAT) technique as described in Hemker H C, Giesen P, Al Dieri R, Regnault V, de Smedt E, Wagenvoord R, et al. Calibrated automated thrombin generation measurement in clotting plasma. Pathophysiol Haemost Thromb 2003; 33:4-15. doi:71636. Thrombin generation was activated by mixing 21 μL of diluted plasma (1:1 with BSA5 buffer) with 7 pIL of fluorogenic substrate (Z-Gly-Gly-Arg-AMC, 16.6 mM) and 14 μL of trigger solution containing phospholipids, tissue factor and CaCl2) (4 μM, […] and 16.6 mM, respectively). In the calibration wells, the 14 μL of reagents were replaced with calibrator (102 nM). Immediately after the activation, 5 μL of the mixture was pipetted on paper disks in a flat bottom 96-well polystyrene plate and covered with 40 μL of mineral oil. Fluorescent signals were measured using the Fluoroskan Ascent software (Thermo Labsystems, Helsinki, Finland) and transformed into thrombin concentration as described in Hemker H C, Kremers R. Data management in Thrombin Generation. Thromb Res 2013; 131:3-11. doi:10.1016/j.thromres.2012.10.011. The parameters analyzed included endogenous thrombin potential (ETP), peak thrombin concentration (peak), and lag time.

[2] = tested on: ApoE/LDLR−/− mice; experiment: Example 3 second part: histological assessment of area and composition of atherosclerotic plaque in BCA; assay type: in vivo; conditions: eight weeks
Description: For the determination of atherosclerotic plaque area and composition isolated brachiocephalic artery (BCA) was dissected, fixed in 4% buffered formalin, and embedded in paraffin. 5 μm-thick serial sections of BCA were collected from the proximal to distal part of the artery. Staining with Unna's orcein combined with Martius, Scarlet and Blue trichrome (OMSB) was applied on every tenth section (50 μm interval between each section) for quantitative analysis of atherosclerotic plaques. The areas of particular components of atherosclerotic plaque as well as artery lumen and wall were determined after Columbus-based software processing (FIG. 9) using specially-designed algorithm as described in Gajda M, Jasztal A, Banasik T, Jasek-Gajda E, Chlopicki S. Combined orcein and martius scarlet blue (OMSB) staining for qualitative and quantitative analyses of atherosclerotic plaques in brachiocephalic arteries in apoE/LDLR−/− mice. Histochem Cell Biol 2017. doi:10.1007/s00418-017-1538-8. The parameters analyzed include vessel wall area (VWA), internal vessel area (IVA=plaque area+lumen area), plaque area (expressed as percent of internal wall area: plaque/IWA), and lumen area (expressed as percent of internal wall area: lumen/IWA).

[3] = mouse, in vivo
[4] = tested on: macrophages in BCA atherosclerotic plaque; experiment: Example 3 second part: immunohistochemical detection of macrophages (Mac-3) in atherosclerotic plaque in BCA; assay type: in vivo, mice; conditions: high dose (10 mg/kg b.w./day)
Procedure: For detection of macrophages in BCA, atherosclerotic plaque immunohistochemical staining was performed. After heat-induce epitope retrieval, with 10 mM sodium citrate buffer (pH 6), deparaffinised sections were blocked with 5% normal goat serum and 1% hydrogen peroxide. […] Next, sections were treated with biotinylated secondary antibody, followed by horseradish peroxidase-conjugated streptavidin. 3,3′-diaminobenzidine (DAB) as a chromogen was used for visualization of antibody-antigen interaction. Sections were counterstained with hematoxylin. Intensity of Mac-3 staining was estimated manually considering quantity and intensity of positive reactions. Final results are shown as a mean from two independent analysis.

[5] = tested on: ApoE/LDLR−/− mice; experiment: Example 3 second part: nitrite and nitrate concentration in plasma; assay type: in vivo; conditions: eight weeks
[6] = tested on: ApoE/LDLR−/− mice; experiment: Example 2: histological assessment of plaque size, composition and vessel wall area in BCA; assay type: in vivo; conditions: two months
Description: Plaque size and composition as well as vessel wall area (VWA) in BCA-Histological assessment, cross-section method, BCA cross-sections: total 13000 slides, Photographed: 1214 slides
For the determination of atherosclerotic plaque area and composition BCA was dissected, fixed in 4% buffered formalin and embedded in paraffin. 5 μm-thick serial sections of BCA were collected from proximal, middle and distal parts of artery. Originally developed staining with Unna's orcein combined with Martius, Scarlet and Blue trichrome (OMSB), was applied on every tenth section (50 μm interval between each section) for visualization of collagen, elastin, fibrin, red blood cells and vascular smooth muscle cells within atherosclerotic plaque. The areas of particular components of atherosclerotic plaque as well as artery lumen and wall were determined after Columbus-based software processing (FIG. 1B) using a previously developed algorithm [Gajda M, Jasztal A, Banasik T, Jasek-Gajda E, Chlopicki S. Combined orcein and martius scarlet blue (OMSB) staining for qualitative and quantitative analyses of atherosclerotic plaques in brachiocephalic arteries in apoE/LDLR−/− mice. Histochem Cell Biol 2017. doi:10.1007/s00418-017-1538-81.

[7] = lower dose, not visible for entire vessel

## CC(C)=CCC/C(C)=C/CC/C(C)=C/CC/C(C)=C/CC/C(C)=C/CC/C(C)=C/CC/C(C)=C/CC1=C(C)C(=O)c2ccccc2C1=O [MK-7, menaquinone-7]
[1]
  thrombin generation: did not affect
[2]; either low or high dose
  plaque and lumen area expressed as percent of IWA: did not change
[2]; low (0.03) or high (10 mg/kg b.w./day) dose
  plaque size vs non-treated mice: not different
[2]; low and high dose, 24-week-old mice
  decrease in vessel wall area (VWA): about 5%
[2]; [7]
  internal wall area (IWA): decreased only in the middle part of the vessel
[3]
  vitamin K1 and K1 2,3-epoxide plasma concentration: tent to decrease
[3]; 5 mg/kg/day
  concentration of MK4 2,3-epoxide in plasma: maintained at similar level
  plasma concentration of K2 (MK-7): dose-dependent increase
  plasma concentration of MK-4: dose-dependent increase
[4]
  intensity of MAC-3 staining: 139±29
[5]; 0.03 or 10 mg/kg b.w./day
  concentration of NO3− in plasma: did not change significantly
[5]; high dose 10 mg/kg b.w./day
  increase in NO2− concentration in plasma: ~42%
[5]; low dose 0.03 mg/kg b.w./day
  increase in NO2− concentration in plasma: about 58%
[6]; either low or high dose
  effect on plaque size: did not result in a beneficial effect
  plaque and lumen area expressed as percent of IWA: did not change
[6]; [7]
  internal wall area (IWA): decreased only in the middle part of the vessel
[6]; similarly after low and high dose
  decrease in lipid core expressed as percent of plaque: about 17%
[6]; similarly for low (0.03) and high (10 mg/kg b.w./day) dose
  decrease in vessel wall area (VWA) of BCA: about 5%
[6]; treated vs untreated groups
  content of collagen in plaque: lack of differences
